Laboratory results taken from US9795602B2, “Polycyclic-carbamoylpyridone compounds and their pharmaceutical use” (Gilead Sciences, Inc., priority 2014, dated 2017).

Columns and labels:
[1] = Pharmacokinetics after oral administration to male SD rats; format: in vivo; conditions: Sprague-Dawley, plasma, rat, oral gavage 0.5 mg/kg, solution, read-out: % F (solution)
Experimental: Pharmacokinetic analysis was performed on compounds 25b and 39 following intravenous or oral administration to rats.
The test compounds were formulated in 5% Ethanol, 55% PEG 300, and 40% water at 0.1 mg/mL for IV infusion and for oral dosing.
Each dosing group consisted of 3 male, Sprague-Dawley rats. At dosing, the animals weighed an average of 0.25 kg. The animals were fasted overnight prior to dose administration and up to 4 hr after dosing.
For the IV infusion group, the test article was administered by intravenous infusion over 30 min. The rate of infusion was adjusted according to the body weight of each animal to deliver a dose of 0.5 mg/kg. For the oral dosing group, the test article was administered by oral gavage at 5 mL/kg for a dose of 0.5 mg/kg.
For pharmacokinetic analysis of orally administered compounds, serial venous blood samples (approximately 0.3 mL each) were taken from each animal at time points of 0, 0.25, 0.50, 1.0, 2.0, 4.0, 6.0, 8.0, 12.0 24.0, 48.0 and 72 hours after dosing. Blood samples were collected, prepared and analyzed in a similar way to the intravenous studies described above. Non-compartmental pharmacokinetic analysis was performed on the plasma concentration-time data. In Table 2, F (%) refers to oral bioavailability.

HIV-1 E138K/Q148K = format: cell-based; conditions: MT2 cells; mean EC50 mutant / mean EC50 wt
Experimental: (§1) For the antiviral assay utilizing MT-2 cells, 50 μL of 2× test concentration of 3-fold serially diluted compound in culture medium with 10% FBS was added to each well of a 96-well plate (9 concentrations) in triplicate. MT-2 cells were infected with wild-type or mutant variants of HIV-1 for 3 hours using a volume of viral inoculum determined to produce 90% cell killing. Fifty microliters of infected cell suspension in culture medium with 10% FBS (˜1.5×10^4 cells) was then added to each well containing 50 μL of serially diluted compound. The plates with HIV-infected cultures were then incubated at 37° C. for 5 days in the presence of the tested compounds. After 5 days of incubation, 100 μL of CellTiter-Glo™ Reagent (catalog # G7571, Promega Biosciences, Inc., Madison, Wis.) was added to each well. Cell lysis was carried out by incubating at room temperature for 10 min followed by a chemiluminescence read-out.
(§2) The chemiluminescence readout from the 10-point antiviral dose response was analyzed directly by curve fitting with equation (I) to determine the EC50.
(§3) where y=Cell Survival, M=maximum cell survival enabled by drug protection, H=baseline cell survival without drug protection, n=Hill coefficient of the antiviral dose response, m=Hill coefficient of the cytotoxicity dose response, and [I]=inhibitor concentration.
(§4) EC50 values (mean±standard deviation) were calculated from at least three independent experiments performed in triplicate. The fold-change in antiviral activity of tested compounds was calculated as a ratio of the mean EC50 for each mutant virus divided by the mean EC50 of the control WT virus.

HIV-1 G140S/Q148R = format: cell-based; conditions: MT2 cells; mean EC50 mutant / mean EC50 wt
Experimental: as §1, §2, §3, §4

HIV-1 E92Q/N155H = format: cell-based; conditions: MT2 cells; mean EC50 mutant / mean EC50 wt
Experimental: as §1, §2, §3, §4

HIV-1 N155H/Q148R = format: cell-based; conditions: MT2 cells; mean EC50 mutant / mean EC50 wt
Experimental: as §1, §2, §3, §4

OCT2 = OCT2 (Homo sapiens (Human), UniProt O15244); test: OCT2 inhibition assay (14C-TEA uptake, OCT2-transfected MDCKII cells); format: cell-based
Sequence of OCT2 (O15244 whole entry): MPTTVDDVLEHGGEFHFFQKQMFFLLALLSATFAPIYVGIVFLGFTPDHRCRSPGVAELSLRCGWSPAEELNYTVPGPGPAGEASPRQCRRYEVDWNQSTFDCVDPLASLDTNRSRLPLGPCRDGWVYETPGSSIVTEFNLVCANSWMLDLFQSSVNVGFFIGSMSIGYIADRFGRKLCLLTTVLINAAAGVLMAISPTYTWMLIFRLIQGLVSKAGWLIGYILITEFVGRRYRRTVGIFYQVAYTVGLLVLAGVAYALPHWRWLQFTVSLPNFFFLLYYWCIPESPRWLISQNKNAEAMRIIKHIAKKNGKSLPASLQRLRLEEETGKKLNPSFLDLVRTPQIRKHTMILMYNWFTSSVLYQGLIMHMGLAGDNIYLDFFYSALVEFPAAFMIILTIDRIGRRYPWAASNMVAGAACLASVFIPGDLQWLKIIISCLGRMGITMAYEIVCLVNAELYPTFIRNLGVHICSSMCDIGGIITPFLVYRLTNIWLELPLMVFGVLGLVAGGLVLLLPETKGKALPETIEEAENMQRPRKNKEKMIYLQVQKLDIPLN
Experimental: MDCKII cells were maintained in minimal essential medium (MEM) with 1% Pen/Strep, 10% fetal bovine serum, and 0.25 mg/mL hygromycin B in an incubator set at 37° C., 90% humidity and 5% CO2. 24 hours prior to assay, media containing 5 mM sodium butyrate were added to MDCKII cells in flasks, and cells were grown to 80-90% confluence. On assay day, cells were trypsinized and resuspended in Krebs-Henseleit Buffer (KHB), pH 7.4 at […]. Cells were preincubated for 15 min in assay plate before addition of test compound or substrate.
Test compounds were serially diluted in DMSO and then spiked (2 μL) into in 0.4 mL KHB buffer containing wild-type or OCT2-transfected cells and incubated for 10 minutes. Assay was initiated with the addition of 0.1 mL of 100 μM ^14C-TEA in KHB buffer (20 μM final concentration after mixing). The concentration of TEA is based on the Km. After 10 minutes of incubation, the assay mixture was quenched with addition of 0.5 mL of ice-cold 1×PBS buffer. Samples were then centrifuged at 1000 rpm for 5 min and supernatants were removed. Wash steps were repeated four times with ice-cold PBS. Finally, the cell pellets were lysed with 0.2N NaOH and let sit at room temperature for at least 30 min to ensure complete lysis. Samples were then counted on liquid scintillation counter and dpm counts were used to perform the following calculations. The % inhibition was calculated as follows: % inhibition=[1−{[OCT2]i−[WT]ni}/{[OCT2]ni−[WT]ni}]*100 where, [OCT2]i represents the dpm count in the presence of test compound for either OCT2 cells, […] of test compound for OCT2 cells and [WT]ni represents the dpm count in the absence of test compound for wild type cells, respectively.

Compound | bioavailability [1] | Resistance fold shift E138K/Q148K vs. wild type (HIV-1 E138K/Q148K) | Resistance fold shift G140S/Q148R vs. wild type (HIV-1 G140S/Q148R) | Resistance fold shift E92Q/N155H vs. wild type (HIV-1 E92Q/N155H) | Resistance fold shift N155H/Q148R vs. wild type (HIV-1 N155H/Q148R) | IC50 (OCT2)
CCN1C(=O)c2c(O)c(=O)c(C(=O)NCc3ccc(F)c(Cl)c3F)cn2[C@H]2CCO[C@H]21 [Compound 25b] | 39% | 2.3 fold shift | 1.9 fold shift | 2.2 fold shift | 2.2 fold shift | 10 µM
CCN1C(=O)c2c(O)c(=O)c(C(=O)NCc3ccc(F)c(Cl)c3F)cn2[C@H]2CCOC[C@H]21 [Compound 39] | 15% | 1.5 fold shift | 1.8 fold shift | 2.3 fold shift | 2.8 fold shift | 10 µM
